In the supplement of paper PMC13380429:

How the values were obtained:
Conditions in all cases: 72 h
U2OS [1] = experiment: drug sensitivity score (DSS) for viability; higher = more toxic; extreme values may be limits of the assay
Vero E6 [2] = experiment: as above
Caco-2 [3] = experiment: as above
HepG2 [4] = experiment: as above
U2OS [5] = experiment: relative viability EC50 (midpoint between 100% and the lowest measured viability); higher = less toxic
Vero E6 [6] = experiment: as above
Caco-2 [7] = experiment: as above
HepG2 [8] = experiment: as above
U2OS [9] = experiment: cell viability relative to DMSO; higher = less toxic
Vero E6 [10] = experiment: as above
Caco-2 [11] = experiment: as above
HepG2 [12] = experiment: as above
Calu-3 [13] = experiment: drug sensitivity score (DSS) for viability; higher = more toxic; extreme values may be limits of the assay
Calu-3 [14] = experiment: cell viability relative to DMSO; higher = less toxic

| SMILES | drug sensitivity score (U2OS [1]) | drug sensitivity score (Vero E6 [2]) | drug sensitivity score (Caco-2 [3]) | drug sensitivity score (HepG2 [4]) | relative viability EC50 (U2OS [5]) | relative viability EC50 (Vero E6 [6]) | relative viability EC50 (Caco-2 [7]) | relative viability EC50 (HepG2 [8]) | cell viability (U2OS [9]; 1 nM) | cell viability (U2OS [9]; 10 nM) | cell viability (U2OS [9]; 100 nM) | cell viability (U2OS [9]; 1000 nM) | cell viability (U2OS [9]; 10000 nM) | cell viability (Vero E6 [10]; 1 nM) | cell viability (Vero E6 [10]; 10 nM) | cell viability (Vero E6 [10]; 100 nM) | cell viability (Vero E6 [10]; 1000 nM) | cell viability (Vero E6 [10]; 10000 nM) | cell viability (Caco-2 [11]; 1 nM) | cell viability (Caco-2 [11]; 10 nM) | cell viability (Caco-2 [11]; 100 nM) | cell viability (Caco-2 [11]; 1000 nM) | cell viability (Caco-2 [11]; 10000 nM) | cell viability (HepG2 [12]; 1 nM) | cell viability (HepG2 [12]; 10 nM) | cell viability (HepG2 [12]; 100 nM) | cell viability (HepG2 [12]; 1000 nM) | cell viability (HepG2 [12]; 10000 nM) | drug sensitivity score (Calu-3 [13]) | cell viability (Calu-3 [14]; 1 nM) | cell viability (Calu-3 [14]; 10 nM) | cell viability (Calu-3 [14]; 100 nM) | cell viability (Calu-3 [14]; 1000 nM) | cell viability (Calu-3 [14]; 10000 nM) |
| --- | --- | --- | --- | --- | --- | --- | --- | --- | --- | --- | --- | --- | --- | --- | --- | --- | --- | --- | --- | --- | --- | --- | --- | --- | --- | --- | --- | --- | --- | --- | --- | --- | --- | --- |
| CC[C@H](C)[C@@H]([C@@H](CC(=O)N1CCC[C@H]1[C@H](OC)[C@@H](C)C(=O)N[C@@H](Cc1ccccc1)c1nccs1)OC)N(C)C(=O)[C@@H](NC(=O)[C@H](C(C)C)N(C)C)C(C)C [dolastatin-10] | 40 | 39 | 31.3 | 34 | < 0.001 µM | < 0.001 µM | < 0.001 µM | < 0.001 µM | 35.8% | 22.7% | 15.4% | 15.6% | 11.1% | 38.5% | 24.6% | 18.4% | 17.9% | 9.9% | 51.5% | 40.6% | 35% | 32.2% | 20.8% | 24.5% | 32.5% | 32.5% | 29.4% | 22.2% |  |  |  |  |  |  |
| CC1=NN(c2ccc(C)c(C)c2)C(=O)/C1=N\Nc1cccc(-c2cccc(C(=O)O)c2)c1O [eltrombopag] | 1.2 | 0.8 | 0 | 3.4 |  | > 10 µM | > 10 µM | 2.71 µM | 95.6% | 102% | 100% | 101% | 71.1% | 97.6% | 93.5% | 91.9% | 90.7% | 82.9% | 93.5% | 89.8% | 93.5% | 97.9% | 82.1% | 97.4% | 92% | 105% | 96.8% | 44.5% | 1.5 | 114% | 102% | 100% | 96.7% | 74.3% |
| Nc1nc2c(ncn2COC(CO)CO)c(=O)[nH]1 [ganciclovir] | 0 | 0 |  | 0 |  |  |  |  |  |  |  |  |  |  |  |  |  |  |  |  |  |  |  |  |  |  |  |  | 0 |  |  |  |  |  |
| CCC(=O)O[C@@H]1CC(=O)O[C@H](C)C/C=C/C=C/[C@H](O)[C@H](C)C[C@H](CC=O)[C@H](O[C@@H]2O[C@H](C)[C@@H](O[C@H]3C[C@@](C)(O)[C@@H](OC(=O)CC)[C@H](C)O3)[C@H](N(C)C)[C@H]2O)[C@H]1OC [midecamycin] | 0 | 0 | 0 | 1.3 | > 10 µM | > 10 µM | > 10 µM |  | 97.1% | 97% | 99.2% | 96.2% | 97.6% | 105% | 97.7% | 101% | 102% | 95.2% | 94.4% | 99.1% | 103% | 91.8% | 91.4% | 103% | 93.1% | 91.5% | 98% | 74% |  |  |  |  |  |  |
| CCCOc1ccc2[nH]c(NC(=O)OC)nc2c1 [oxibendazole] | 2.6 | 7.9 | 2.4 | 2.1 | 3.4 µM | 0.54 µM |  |  | 101% | 95.2% | 101% | 102% | 47.5% | 95.1% | 96.3% | 90.2% | 63.8% | 41.9% | 94.8% | 93.7% | 107% | 96.4% | 63.1% | 91.1% | 95.8% | 94.6% | 103% | 54.4% | 2.1 | 102% | 97.2% | 97.1% | 97.8% | 63% |
| NS(=O)(=O)OC[C@@H]1C[C@@H](n2ccc3c(N[C@H]4CCc5ccccc54)ncnc32)C[C@@H]1O [pevonedistat] | 8.8 | 3.9 | 3.1 | 10.3 | 1.3 µM | 3.45 µM |  | 0.401 µM | 98.6% | 98.6% | 101% | 71% | 14.9% | 96.9% | 107% | 103% | 104% | 24.3% | 95.3% | 106% | 87.7% | 92.4% | 60.1% | 96.3% | 111% | 77.6% | 58.2% | 32.7% | 1.6 | 94.9% | 97.2% | 104% | 97.4% | 71.8% |
| N=C(N)NC(=O)c1cnccn1 [pyrazinoylguanidine] |  | 0 | 0 | 0 |  | > 10 µM | > 10 µM | > 10 µM |  |  |  |  |  | 99.8% | 106% | 104% | 106% | 99.7% | 107% | 100% | 101% | 99.7% | 101% | 104% | 97.1% | 94.9% | 99.1% | 104% |  |  |  |  |  |  |
| C=C[C@H]1CN2CC[C@H]1C[C@@H]2[C@@H](O)c1ccnc2ccc(OC)cc12 [quinidine] | 0 | 0 |  | 0 |  |  |  |  |  |  |  |  |  |  |  |  |  |  |  |  |  |  |  |  |  |  |  |  | 0 |  |  |  |  |  |
| CNCc1ccc(-c2[nH]c3cc(F)cc4c3c2CCNC4=O)cc1 [rucaparib] | 0 | 0 | 0 | 1.1 | > 10 µM | > 10 µM | > 10 µM | > 10 µM | 101% | 93.4% | 98.7% | 102% | 106% | 96.4% | 99.9% | 96.1% | 93.7% | 93.3% | 94.7% | 91.2% | 97.4% | 94.5% | 89.6% | 98.8% | 109% | 95.5% | 92% | 78.7% |  |  |  |  |  |  |
| CCN1CCCC1CNC(=O)c1cc(S(N)(=O)=O)ccc1OC (stereo not drawn) [sulpiride] | 0 | 0 |  | 0 |  |  |  |  |  |  |  |  |  |  |  |  |  |  |  |  |  |  |  |  |  |  |  |  | 0 |  |  |  |  |  |
| O=c1ccn([C@@H]2O[C@H](CO)[C@@H](O)[C@H]2O)c(=O)[nH]1 [uridine] | 0 | 0 |  | 0.8 |  |  |  |  |  |  |  |  |  |  |  |  |  |  |  |  |  |  |  |  |  |  |  |  | 0 |  |  |  |  |  |
